The target of the assay is high affinity nicotinic receptors. Kind of assay: Inhibition of L-[3H]nicotine binding to mouse brain membranes. More on the design: species or system Mice (DBA strain). The note with it: 2 hr incubation at 4° C., Ki calculated from IC50 by method of Cheng. The protocol: Mice (DBA strain) were maintained on a 12 hour light/dark cycle and were allowed free access to water and food supplied by Wayne Lab Blox, Madison, Wis. Animals used in the present studies were 60 to 90 days of age and weighed 20 to 25 g. Brain membrane preparations were obtained from pooled brain tissue of both males and females.
Mice were killed by cervical dislocation. Brains were removed and placed on an ice-cold platform. […] Protein was determined by the method of Lowry, et al., J. Biol. Chem., Vol. 193, pp. 265-275 (1951), using bovine serum albumin as the standard.
The binding of L-[^3 H]nicotine was measured using a modification of the method of Romano, et al., Science, Vol 210 pp. 647-650 (1980) as described previously by Marks, et al., Mol. Pharmacol., Vol. 30, pp. 427-436 (1986). The binding of L-[^3 H]nicotine was measured using a 2 hr. incubation at 4° C. […] Nonspecific binding was determined by inclusion of 10 μM nonradioactive nicotine in the incubations. The inhibition of L-[^3 H]nicotine binding by test compounds was determined by including one of eight different concentrations of the test compound in the incubation. […] Inhibition constant (Ki values) were calculated from the IC50 values using the method of Cheng, et al., Biochem. Pharmacol., Vol. 22, pp. 3099-3108 (1973). […]

In general, Ki refers to a measure of affinity in units of concentration, obtained from inhibition or displacement. Consider `c1ccc(C2CCCN2)nc1` (racemic) [alpha-nornicotine], for which the Ki was 5.7 µM.

(Values after US5232933A, “Method for treatment of neurodegenerative diseases” (R. J. Reynolds Tobacco Company, priority 1992, dated 1993).)
